Experimental data reported in patent US20240343699A1, “DERIVATIVES OF SUBSTITUTED MORPHOLINES AND USES THEREOF” (Supernus Pharmaceuticals, Inc., priority 2023, published 2024).
Where “and” joins values, the source holds several entries; their conditions need not be identical. Equal entries are not always repeated. Where two headings read alike, the source gives them in different places.

Assays:
[1] = Preclinical PK: plasma viloxazine after PO dosing of COMPOUND D or COMPOUND E; type: in vivo, mouse; conditions: COMPOUND D PO 19.74 mg/kg, individual mice
Method: A study was conducted for preclinical PK performance of COMPOUND D and COMPOUND E. Please see below for details on the study, with fasted mice orally dosed with COMPOUND D or COMPOUND E.
Relevant data are summarized in below tables (ND=Not determined (Parameters not determined due to inadequately defined terminal elimination phase. BQL=Below the lower limit of quantitation (LLOQ). If the adjusted rsq (linear regression coefficient of the concentration value on the terminal phase) is less than 0.9, T1/2 might not be accurately estimated. If the % AUCExtra>20%, AUC0-inf, Cl, MRT0-inf and Vdss might not be accurately estimated. If the % AUMCExtra>20%, MRT0-inf and Vdss might not be accurately estimated. a: Bioavailability (%) was calculated using AUC0-inf (% AUCExtra<20%) or AUC0-last (% AUCExtra>20%) with nominal dose)

[2] = Preclinical PK after intraperitoneal dosing of COMPOUND D, COMPOUND B and viloxazine; type: in vivo, mouse; conditions: COMPOUND D IP 10.978 mg/kg; for Cmax: read-out: Cmax, plasma COMPOUND D
[3] = type: in vitro ADME; conditions: Rat plasma, wet ice bath
Method: A study was conducted to examine the bioanalytical data for compounds in Rat plasma. […] Frozen Sprague Dawley rat (male pooled) and human (mixed gender) plasma was utilized for the study. Test compounds were dissolved in dimethyl sulfoxide (DMSO) to make a 10 mM stock solution. A working solution was made with MeOH/water. […]

[4] = type: in vitro ADME, mouse; conditions: mice Blood, wet ice bath, 5% Paraoxon ethyl as stabilizer; for % stability: 0.5 hr

With CCOc1ccccc1OCC1CN(C(=O)OC(C)OC(=O)[C@H](N)C(C)C)CCO1 (stereo partly shown) [COMPOUND D] the “Plasma concentration of Viloxazine” value ([1]; 8.00 h) was “BQL”, the “Plasma concentration of Viloxazine” value ([1]; 24.0 h) was “BQL” and the concentration at 0.25 h ([2]; CD-1, mouse, plasma, ip, 10.978 mg/kg, 0.250 h, individual mice, read-out: Plasma concentration of COMPOUND D) was 3.44 ng/mL. The concentration at 0.5 h ([2]; CD-1, mouse, plasma, ip, 10.978 mg/kg, 0.500 h, individual mice, read-out: Plasma concentration of COMPOUND D) was 1.12 ng/mL, the concentration at 1 h ([2]; CD-1, mouse, plasma, ip, 10.978 mg/kg, 1.00 h, individual mice) was 5.74 ng/mL and the concentration at 24 h ([2]; CD-1, mouse, plasma, ip, 10.978 mg/kg, 24.0 h, individual mice) was 3.48 ng/mL. For the same compound, the Cmax ([2]; CD-1, mouse, plasma, ip, 10.978 mg/kg, individual mice) was 5.74 ng/mL, the AUC(0-t) ([2]; CD-1, mouse, plasma, ip, 10.978 mg/kg, mean, read-out: AUC0-last, plasma COMPOUND D) was 42.3 ng·h/mL and the Cmax ([2]; CD-1, mouse, plasma, ip, 10.978 mg/kg, mean) was 4.61 ng/mL. The MRT last ([2]; CD-1, mouse, plasma, ip, 10.978 mg/kg, mean, read-out: MRT0-last, plasma COMPOUND D) was 6.5 h, the Tmax ([2]; CD-1, mouse, plasma, ip, 10.978 mg/kg, mean, read-out: Tmax, plasma COMPOUND D) was 12.5 h and the “Plasma concentration of COMPOUND D” value ([2]; 0.250 h, individual mice, 10.978 mg/kg) was “BQL”. For the same compound, the “Plasma concentration of COMPOUND D” value ([2]; 0.500 h, individual mice, 10.978 mg/kg) was “BQL”, the “Plasma concentration of COMPOUND D” value ([2]; 1.00 h, individual mice, 10.978 mg/kg) was “BQL” and the “Plasma concentration of COMPOUND D” value ([2]; 2.00 h, individual mice) was “BQL”. The “Plasma concentration of COMPOUND D” value ([2]; 4.00 h, individual mice) was “BQL”, the “Plasma concentration of COMPOUND D” value ([2]; 8.00 h, individual mice) was “BQL” and the “Plasma concentration of Viloxazine” value ([2]; 8.00 h, individual mice, 10.978 mg/kg) was “BQL”. The “Plasma concentration of Viloxazine” value ([2]; 24.0 h, individual mice) was “BQL”, the “Plasma concentration of COMPOUND D” value ([2]; 24.0 h, individual mice, 10.978 mg/kg) was “BQL” and the “AUC0-last, plasma COMPOUND D” value ([2]; individual mice, 10.978 mg/kg) was 2.00 ng·h/mL and 82.6 ng·h/mL. The “Cmax, plasma COMPOUND D” value ([2]; individual mice, 10.978 mg/kg) was 3.48 ng/mL, the “MRT0-last, plasma COMPOUND D” value ([2]; individual mice, 10.978 mg/kg) was 0.860 h and 12.1 h and the “Tlast, plasma COMPOUND D” value ([2]; individual mice, 10.978 mg/kg) was 1.00 h and 24.0 h. For the same compound, the “Tmax, plasma COMPOUND D” value ([2]; individual mice, 10.978 mg/kg) was 1.00 h and 24.0 h, the “Tlast, plasma COMPOUND D” value ([2]; mean) was 12.5 h and the “Mean peak area ratio” value ([3]; 5% Paraoxon ethyl as stabilizer, HQC, 0 hr sample) was 1.83. The “% stability” value ([3]; 5% Paraoxon ethyl as stabilizer, HQC, 1 hr) was 58.7%, the “Mean peak area ratio” value ([3]; 5% Paraoxon ethyl as stabilizer, HQC, 1 hr sample) was 1.07 and the “% stability” value ([3]; 5% Paraoxon ethyl as stabilizer, HQC, 2 hr) was 26.0%. For the same compound, the “Mean peak area ratio” value ([3]; 5% Paraoxon ethyl as stabilizer, HQC, 2 hr sample) was 0.47, the “Mean peak area ratio” value ([3]; 5% Paraoxon ethyl as stabilizer, LQC, 0 hr sample) was 0.00608 and the “% stability” value ([3]; 5% Paraoxon ethyl as stabilizer, LQC, 1 hr) was 57.3%. The “Mean peak area ratio” value ([3]; 5% Paraoxon ethyl as stabilizer, LQC, 1 hr sample) was 0.00348, the “% stability” value ([3]; 5% Paraoxon ethyl as stabilizer, LQC, 2 hr) was 36.9% and the “Mean peak area ratio” value ([3]; 5% Paraoxon ethyl as stabilizer, LQC, 2 hr sample) was 0.00224. For the same compound, the “Mean peak area ratio” value ([3]; No stabilizer, HQC, 0 hr sample) was 0.67, the “% stability” value ([3]; No stabilizer, HQC, 1 hr) was 31.2% and the “Mean peak area ratio” value ([3]; No stabilizer, HQC, 1 hr sample) was 0.21. For the same compound, the “% stability” value ([3]; No stabilizer, HQC, 2 hr) was 8.0%, the “Mean peak area ratio” value ([3]; No stabilizer, HQC, 2 hr sample) was 0.05 and the “Mean peak area ratio” value ([3]; No stabilizer, LQC, 0 hr sample) was 0.00292. The “% stability” value ([3]; No stabilizer, LQC, 1 hr) was 30.1%, the “Mean peak area ratio” value ([3]; No stabilizer, LQC, 1 hr sample) was 0.00088 and the “% stability” value ([3]; No stabilizer, LQC, 2 hr) was 6.8%. For the same compound, the “Mean peak area ratio” value ([3]; No stabilizer, LQC, 2 hr sample) was 0.0002, the Mean peak area ([4]; HQC, 0 hr sample) was 1.315 and the “% stability” value ([4]; HQC) was 52%. The Mean peak area ([4]; HQC, 0.5 hr sample) was 0.682, the Mean peak area ([4]; LQC, 0 hr sample) was 0.00479 and the “% stability” value ([4]; LQC) was 54.7%. The Mean peak area ([4]; LQC, 0.5 hr sample) was 0.00262.
